Test results taken from patent US11091806B2, “Genetic markers associated with response to CRTH2 receptor antagonists” (Merck Sharp & Dohme Corp., priority 2015, dated 2021).

Tests used:
[1] = tested on: asthmatic subjects with persistent symptoms; assay: 17-week randomized, double-blind, placebo-controlled, crossover study of FEV1 in asthmatic subjects receiving montelukast, with pharmacogenetic subgroup analysis; type: in vivo, human; conditions: for Estimated mean treatment difference in FEV1 at Week 4 using the new method of analysis, LSMean: Compound A + montelukast vs placebo + montelukast, xdiff=0
From the text: FIG. 2 is graphical depiction of the study design. The study was a 17-week randomized, double-blind, placebo-controlled, crossover study with in-house blinding to evaluate the effect of {(7R)-4-fluoro-7-[5-(4-fluorobenzyl)-1H-[1,2,3]triazol-1-yl]-6,7,8,9-tetrahydropyrido[1,2-a]indol-10-yl}-acetic acid (hereinafter “Compound A”) on FEV1 when dosed for 4 weeks in asthmatic subjects with persistent symptoms while receiving montelukast (ML). Overall, 104 patients completed the study. Period I was a pre-study period. Subjects receiving long acting beta-agonists (LABAs) with inhaled corticosteroid (ICS), either separately or as part of a fixed-dose combination, were asked to discontinue the LABA component while still receiving ICS. Period II was a 2- to 4-week run-in period during which subjects receive open-label montelukast (ML) and single-blind placebo (PBO). Subjects receiving ICS or other controllers were required to taper off these medications while receiving montelukast; Period III was a 4-week, double-blind, randomized treatment period during which subjects received either Compound A 150 mg or matching-image placebo while continuing to receive montelukast 10 mg QD; Period IV was a 4-week wash out period during which subjects receive placebo in a single-blind fashion while continuing to receive montelukast 10 mg QD; Period V was a 4-week double-blind period during which subjects were crossed over to the opposite treatment not received during Period III.
The primary efficacy endpoint of the study was forced expiratory volume in 1 second (FEV1) after 4 weeks of dosing, and the study had 85% power to detect a true overall mean treatment difference of 110 mL.
A common analysis for crossover designs with longitudinal measurements in each period uses a linear mixed effects “cell means” model with the clinical measure (here, FEV1) as the dependent variable, and sequence (S=M→P, P→M), treatment (T=M,P), visit (V=0, 2, 4 weeks), and all possible interactions involving S, T, and V as independent variables; M=Compound A+montelukast, P=placebo+montelukast. In addition, to minimize assumptions, a covariance matrix without imposition of any structure (such as compound symmetry) is used to account for the intra-patient correlations among FEV1 responses over time and across the two treatments within each sequence.
This common analysis can be misleading if both of the following conditions are encountered in either crossover sequence: (i) the observed mean difference in baseline means for the two treatments is “far” from zero, and (ii) baseline and post-baseline responses are very strongly correlated (correlation 0.9 or higher). […] Consequently, we analyzed the FEV1 data using an extension of the method of analysis described in Mehrotra D V, Pharmaceutical Statistics 13, 376-387 (2014). This second analytical method is specifically designed for crossover analyses with baseline measurements. To do so, we added “xdiff” (baseline difference between treatments M and P) and interactions between xdiff and all the other fixed effect terms involving S, T, and V to the aforementioned common analysis crossover model; the mean treatment difference at week 4 was estimated at xdiff=0 via the SAS code below.
In the SAS code above, patients with a missing xdiff value are automatically removed from the analysis. To generate results in which all 103 patients are retained in the analysis, missing period 2 baseline FEV1 values (resulting in missing xdiff values, which was the case for ˜20% of the patients due to dropout) were imputed separately in each sequence via a simple linear regression model with the period 2 baseline as the dependent variable and the corresponding period 1 baseline as the independent variable. As noted earlier, the observed correlation between period 1 and period 2 FEV1 baselines was 0.9 in both sequences, providing reassurance that the imputed values for missing period 2 baselines had good reliability. […]

allergic rhinitis = conditions: in vivo; cited from earlier work
[2] = tested on: patient population afflicted with eosinophilic severe asthma; conditions: patients with eosinophilic severe asthma; Phase IIa; cited from earlier work

O=C(O)Cc1c2n(c3c(F)cccc13)C[C@H](n1nncc1Cc1ccc(F)cc1)CC2 [Compound A, {(7R)-4-fluoro-7-[5-(4-fluorobenzyl)-1H-[1,2,3]triazol-1-yl]-6,7,8,9-tetrahydropyrido[1,2-a]indol-10-yl}-acetic acid]
FEV1: Estimated Mean Treatment Difference at Week 4 by Genotype Subgroup for rs12748961, LSMean ([1]; C = 0 (N = 74), no copies of the C allele): 59 mL
FEV1: Estimated Mean Treatment Difference at Week 4 by Genotype Subgroup for rs12748961, LSMean ([1]; C ≥1 (N = 29), one or two copies of the C allele): 268 mL
Estimated mean treatment difference in FEV1 at Week 4 using the new method of analysis, LSMean ([1]; missing period 2 FEV1 baselines imputed: No (N = 85)): 120 mL
Estimated mean treatment difference in FEV1 at Week 4 using the new method of analysis, LSMean ([1]; missing period 2 FEV1 baselines imputed: Yes (N = 103)): 122 mL
Effectiveness in improving FEV1 levels relative to placebo ([1]; after four weeks of treatment in patients who continue to take montelukast as background therapy): notably more effective
Estimated benefit (FEV1) in patients without the C allele of rs12748961 ([1]; remaining 70% of the patients (C = 0)): relatively small

O=C(O)CCn1c2c(c3ccccc31)C[C@H](NS(=O)(=O)c1ccc(F)cc1)CC2 [Ramatroban, 3-((3R)-3-{[(4-fluorophenyl)sulfonyl]amino}-1,2,3,4-tetrahydro-9H-carbazol-9-yl)propanoic acid]
Efficacy in allergic rhinitis (allergic rhinitis): some degree of efficacy

Cc1c(CC(=O)O)c2cccnc2n1Cc1ccc(S(C)(=O)=O)cc1C(F)(F)F [fevipiprant, 2-(2-methyl-1-(4-(methylsulfonyl)-2-(trifluoromethyl)benzyl)-1H-pyrrolo[2,3-b]pyridin-3-yl)acetic acid]
Sputum eosinophils [2]: reduction of sputum eosinophils
